Columns and labels:
Experiment in all cases: Radiolabeled ATP kinase assay, panel of 371 kinases (Table S6)
Assay type in all cases: biochemical
[1] = molecular target: T1, panel of 371 human kinases (Homo sapiens, UniProt Q05655); conditions: PKCd; 0.1 μM; 10 μM ATP; read-out: % Enzyme Activity (relative to DMSO controls)
T1 construct: purchased Reaction Biology Corp
Source text: (§1) ; FIG. 38C). […]. Further targeted analyses, such as genetic knock-down or knock-out, may be warranted to parse the role of these additional kinases in our model of neurodegeneration.

[2] = molecular target: T2, panel of 371 human kinases (Homo sapiens, UniProt Q9UPE1); conditions: MSSK1/STK23; 0.1 μM; 10 μM ATP; read-out: % Enzyme Activity (relative to DMSO controls)
T2 construct: purchased Reaction Biology Corp
Source text: as §1

[3] = molecular target: T3, panel of 371 human kinases (Homo sapiens, UniProt P10721); conditions: c-Kit; 0.1 μM; 10 μM ATP; read-out: % Enzyme Activity (relative to DMSO controls)
T3 construct: purchased Reaction Biology Corp
Source text: as §1

[4] = molecular target: T4, panel of 371 human kinases (Homo sapiens, UniProt P06241); conditions: FYN; 0.1 μM; 10 μM ATP; read-out: % Enzyme Activity (relative to DMSO controls)
T4 construct: purchased Reaction Biology Corp
Source text: as §1

[5] = molecular target: T5, panel of 371 human kinases (Homo sapiens, UniProt P49840); conditions: GSK3a; 0.1 μM; 10 μM ATP; read-out: % Enzyme Activity (relative to DMSO controls)
T5 construct: purchased Reaction Biology Corp
Source text: as §1

[6] = molecular target: T6, panel of 371 human kinases (Homo sapiens, UniProt Q9Y2H1); conditions: STK38/NDR2; 0.1 μM; 10 μM ATP; read-out: % Enzyme Activity (relative to DMSO controls)
T6 construct: purchased Reaction Biology Corp
Source text: as §1

[7] = molecular target: T7, panel of 371 human kinases (Homo sapiens, UniProt P37173); conditions: TGFBR2; 0.1 μM; 10 μM ATP; read-out: % Enzyme Activity (relative to DMSO controls)
T7 construct: purchased Reaction Biology Corp
Source text: as §1

[8] = molecular target: T8, panel of 371 human kinases (Homo sapiens, UniProt P17252); conditions: PKCa; 0.1 μM; 10 μM ATP; read-out: % Enzyme Activity (relative to DMSO controls)
T8 construct: purchased Reaction Biology Corp
Source text: as §1

[9] = molecular target: T9, panel of 371 human kinases (Homo sapiens, UniProt Q86Y07); conditions: VRK2; 0.1 μM; 10 μM ATP; read-out: % Enzyme Activity (relative to DMSO controls)
T9 construct: purchased Reaction Biology Corp
Source text: as §1

[10] = molecular target: T10, panel of 371 human kinases (Homo sapiens, UniProt P31749); conditions: AKT1; 0.1 μM; 10 μM ATP; read-out: % Enzyme Activity (relative to DMSO controls)
T10 construct: purchased Reaction Biology Corp
Source text: as §1

[11] = molecular target: T11, panel of 371 human kinases (Homo sapiens, UniProt Q6VAB6); conditions: KSR2; 0.1 μM; 10 μM ATP; read-out: % Enzyme Activity (relative to DMSO controls)
T11 construct: purchased Reaction Biology Corp
Source text: as §1

[12] = molecular target: T12, panel of 371 human kinases (Homo sapiens, UniProt P41743); conditions: PKCiota; 0.1 μM; 10 μM ATP; read-out: % Enzyme Activity (relative to DMSO controls)
T12 construct: purchased Reaction Biology Corp
Source text: as §1

[13] = molecular target: T13, panel of 371 human kinases (Homo sapiens, UniProt P07948); conditions: LYN; 0.1 μM; 10 μM ATP; read-out: % Enzyme Activity (relative to DMSO controls)
T13 construct: purchased Reaction Biology Corp
Source text: as §1

[14] = molecular target: T14, panel of 371 human kinases (Homo sapiens, UniProt Q05397); conditions: FAK/PTK2; 0.1 μM; 10 μM ATP; read-out: % Enzyme Activity (relative to DMSO controls)
T14 construct: purchased Reaction Biology Corp
Source text: as §1

[15] = molecular target: T15, panel of 371 human kinases (Homo sapiens, UniProt P54760); conditions: EPHB4; 0.1 μM; 10 μM ATP; read-out: % Enzyme Activity (relative to DMSO controls)
T15 construct: purchased Reaction Biology Corp
Source text: as §1

[16] = molecular target: T16, panel of 371 human kinases (Homo sapiens, UniProt P22607); conditions: FGFR3; 0.1 μM; 10 μM ATP; read-out: % Enzyme Activity (relative to DMSO controls)
T16 construct: purchased Reaction Biology Corp
Source text: as §1

[17] = molecular target: T17, panel of 371 human kinases (Homo sapiens, UniProt P52564); conditions: MKK6; 0.1 μM; 10 μM ATP; read-out: % Enzyme Activity (relative to DMSO controls)
T17 construct: purchased Reaction Biology Corp
Source text: as §1

[18] = molecular target: T18, panel of 371 human kinases (Homo sapiens, UniProt Q8NEV4); conditions: MYO3A; 0.1 μM; 10 μM ATP; read-out: % Enzyme Activity (relative to DMSO controls)
T18 construct: purchased Reaction Biology Corp
Source text: as §1

[19] = molecular target: T19, panel of 371 human kinases (Homo sapiens, UniProt Q9HBH9); conditions: MNK2; 0.1 μM; 10 μM ATP; read-out: % Enzyme Activity (relative to DMSO controls)
T19 construct: purchased Reaction Biology Corp
Source text: as §1

[20] = molecular target: T20, panel of 371 human kinases (Homo sapiens, UniProt P42679); conditions: CTK/MATK; 0.1 μM; 10 μM ATP; read-out: % Enzyme Activity (relative to DMSO controls)
T20 construct: purchased Reaction Biology Corp
Source text: as §1

[21] = molecular target: T21, panel of 371 human kinases (Homo sapiens, UniProt P49674); conditions: CK1epsilon; 0.1 μM; 10 μM ATP; read-out: % Enzyme Activity (relative to DMSO controls)
T21 construct: purchased Reaction Biology Corp
Source text: as §1

[22] = molecular target: T22, panel of 371 human kinases (Homo sapiens, UniProt P43403); conditions: ZAP70; 0.1 μM; 10 μM ATP; read-out: % Enzyme Activity (relative to DMSO controls)
T22 construct: purchased Reaction Biology Corp
Source text: as §1

[23] = molecular target: T23, panel of 371 human kinases (Homo sapiens, UniProt O14733); conditions: MKK7; 0.1 μM; 10 μM ATP; read-out: % Enzyme Activity (relative to DMSO controls)
T23 construct: purchased Reaction Biology Corp
Source text: as §1

[24] = molecular target: T24, panel of 371 human kinases (Homo sapiens, UniProt Q9UKI8); conditions: TLK1; 0.1 μM; 10 μM ATP; read-out: % Enzyme Activity (relative to DMSO controls)
T24 construct: purchased Reaction Biology Corp
Source text: as §1

T5 sequence (P49840 whole entry): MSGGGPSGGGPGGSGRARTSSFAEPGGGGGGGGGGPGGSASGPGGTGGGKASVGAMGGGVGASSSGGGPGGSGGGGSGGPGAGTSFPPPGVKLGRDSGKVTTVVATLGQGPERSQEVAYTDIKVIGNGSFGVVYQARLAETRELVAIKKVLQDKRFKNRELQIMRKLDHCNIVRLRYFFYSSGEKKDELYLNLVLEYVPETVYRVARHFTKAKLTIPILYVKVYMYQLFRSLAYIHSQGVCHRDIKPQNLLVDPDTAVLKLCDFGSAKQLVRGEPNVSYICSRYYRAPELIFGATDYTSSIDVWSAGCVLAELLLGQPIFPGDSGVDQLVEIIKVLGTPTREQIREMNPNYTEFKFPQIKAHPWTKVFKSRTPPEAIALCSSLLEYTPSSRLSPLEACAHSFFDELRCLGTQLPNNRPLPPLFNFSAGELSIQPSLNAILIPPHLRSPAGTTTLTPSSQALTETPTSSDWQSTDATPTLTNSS
T24 sequence (Q9UKI8 whole entry): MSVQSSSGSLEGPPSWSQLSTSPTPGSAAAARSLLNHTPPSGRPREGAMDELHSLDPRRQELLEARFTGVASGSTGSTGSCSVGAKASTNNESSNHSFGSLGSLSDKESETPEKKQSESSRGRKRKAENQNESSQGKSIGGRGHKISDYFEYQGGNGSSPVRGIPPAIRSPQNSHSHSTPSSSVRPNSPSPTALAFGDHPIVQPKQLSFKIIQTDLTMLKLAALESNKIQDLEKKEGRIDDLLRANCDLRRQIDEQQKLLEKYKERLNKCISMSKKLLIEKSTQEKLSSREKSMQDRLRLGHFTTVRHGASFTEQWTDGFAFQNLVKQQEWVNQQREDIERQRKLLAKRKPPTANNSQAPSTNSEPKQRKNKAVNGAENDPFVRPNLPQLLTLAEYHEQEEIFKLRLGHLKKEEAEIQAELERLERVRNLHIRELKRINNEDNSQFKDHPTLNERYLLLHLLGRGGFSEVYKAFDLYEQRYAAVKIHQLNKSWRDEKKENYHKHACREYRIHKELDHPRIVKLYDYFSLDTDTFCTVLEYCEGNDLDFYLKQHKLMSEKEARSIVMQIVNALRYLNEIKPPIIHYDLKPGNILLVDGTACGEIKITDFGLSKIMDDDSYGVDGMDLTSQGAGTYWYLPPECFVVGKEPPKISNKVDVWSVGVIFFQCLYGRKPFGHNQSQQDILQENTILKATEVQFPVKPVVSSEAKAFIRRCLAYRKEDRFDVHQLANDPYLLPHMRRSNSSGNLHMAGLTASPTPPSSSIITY
T1 sequence (Q05655 whole entry): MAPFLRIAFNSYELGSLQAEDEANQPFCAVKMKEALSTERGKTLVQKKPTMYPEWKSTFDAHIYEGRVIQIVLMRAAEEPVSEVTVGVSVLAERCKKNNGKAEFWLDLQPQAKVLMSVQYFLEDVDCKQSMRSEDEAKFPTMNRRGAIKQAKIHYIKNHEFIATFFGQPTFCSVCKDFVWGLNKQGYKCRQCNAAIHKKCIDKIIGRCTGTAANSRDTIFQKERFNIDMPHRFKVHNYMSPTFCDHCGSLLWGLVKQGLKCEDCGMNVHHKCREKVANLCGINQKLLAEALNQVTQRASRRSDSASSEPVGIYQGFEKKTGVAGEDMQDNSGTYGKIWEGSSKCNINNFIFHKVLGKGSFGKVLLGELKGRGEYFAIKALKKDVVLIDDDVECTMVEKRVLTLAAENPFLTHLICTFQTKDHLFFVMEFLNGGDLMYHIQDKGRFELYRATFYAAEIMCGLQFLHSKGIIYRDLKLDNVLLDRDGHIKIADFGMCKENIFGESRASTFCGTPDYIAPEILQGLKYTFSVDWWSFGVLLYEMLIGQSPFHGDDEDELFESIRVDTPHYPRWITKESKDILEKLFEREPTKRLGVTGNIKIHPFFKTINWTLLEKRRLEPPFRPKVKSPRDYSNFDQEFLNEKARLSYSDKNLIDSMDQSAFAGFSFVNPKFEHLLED
T13 sequence (P07948 whole entry): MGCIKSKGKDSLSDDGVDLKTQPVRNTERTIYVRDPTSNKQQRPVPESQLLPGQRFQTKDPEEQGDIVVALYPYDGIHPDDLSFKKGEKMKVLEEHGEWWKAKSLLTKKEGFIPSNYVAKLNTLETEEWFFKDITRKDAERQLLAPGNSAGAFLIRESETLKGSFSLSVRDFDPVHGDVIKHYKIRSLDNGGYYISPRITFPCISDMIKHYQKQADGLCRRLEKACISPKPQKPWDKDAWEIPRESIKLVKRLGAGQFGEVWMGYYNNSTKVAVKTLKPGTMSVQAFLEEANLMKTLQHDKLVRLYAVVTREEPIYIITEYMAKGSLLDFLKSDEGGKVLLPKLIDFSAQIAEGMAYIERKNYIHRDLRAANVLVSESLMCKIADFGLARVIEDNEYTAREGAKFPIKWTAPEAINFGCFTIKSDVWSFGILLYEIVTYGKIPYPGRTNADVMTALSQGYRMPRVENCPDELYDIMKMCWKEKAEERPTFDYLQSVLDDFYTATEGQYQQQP
T11 sequence (Q6VAB6 whole entry): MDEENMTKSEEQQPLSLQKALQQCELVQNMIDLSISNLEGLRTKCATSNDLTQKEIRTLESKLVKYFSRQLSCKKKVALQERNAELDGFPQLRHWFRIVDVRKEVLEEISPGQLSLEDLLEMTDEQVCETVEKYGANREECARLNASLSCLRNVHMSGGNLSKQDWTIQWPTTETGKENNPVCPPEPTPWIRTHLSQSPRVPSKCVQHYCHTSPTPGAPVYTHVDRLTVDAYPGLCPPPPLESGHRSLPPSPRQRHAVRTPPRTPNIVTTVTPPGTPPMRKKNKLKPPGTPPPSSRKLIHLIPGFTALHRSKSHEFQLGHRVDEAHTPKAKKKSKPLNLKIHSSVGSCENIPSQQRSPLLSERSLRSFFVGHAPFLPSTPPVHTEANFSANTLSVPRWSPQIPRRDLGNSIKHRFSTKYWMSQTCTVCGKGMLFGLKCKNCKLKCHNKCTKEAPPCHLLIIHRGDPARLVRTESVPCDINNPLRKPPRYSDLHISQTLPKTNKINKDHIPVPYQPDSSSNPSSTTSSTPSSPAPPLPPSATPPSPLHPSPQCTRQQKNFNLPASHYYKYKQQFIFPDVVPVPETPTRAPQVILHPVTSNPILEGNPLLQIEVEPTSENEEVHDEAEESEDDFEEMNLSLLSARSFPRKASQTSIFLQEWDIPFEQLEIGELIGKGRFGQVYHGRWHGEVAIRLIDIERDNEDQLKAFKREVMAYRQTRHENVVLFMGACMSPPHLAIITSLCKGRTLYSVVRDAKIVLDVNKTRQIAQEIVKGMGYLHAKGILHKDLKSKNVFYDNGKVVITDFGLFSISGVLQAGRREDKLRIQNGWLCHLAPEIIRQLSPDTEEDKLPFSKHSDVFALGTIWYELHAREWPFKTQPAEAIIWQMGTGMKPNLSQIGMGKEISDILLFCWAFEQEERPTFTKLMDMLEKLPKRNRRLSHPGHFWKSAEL
T18 sequence (Q8NEV4 whole entry): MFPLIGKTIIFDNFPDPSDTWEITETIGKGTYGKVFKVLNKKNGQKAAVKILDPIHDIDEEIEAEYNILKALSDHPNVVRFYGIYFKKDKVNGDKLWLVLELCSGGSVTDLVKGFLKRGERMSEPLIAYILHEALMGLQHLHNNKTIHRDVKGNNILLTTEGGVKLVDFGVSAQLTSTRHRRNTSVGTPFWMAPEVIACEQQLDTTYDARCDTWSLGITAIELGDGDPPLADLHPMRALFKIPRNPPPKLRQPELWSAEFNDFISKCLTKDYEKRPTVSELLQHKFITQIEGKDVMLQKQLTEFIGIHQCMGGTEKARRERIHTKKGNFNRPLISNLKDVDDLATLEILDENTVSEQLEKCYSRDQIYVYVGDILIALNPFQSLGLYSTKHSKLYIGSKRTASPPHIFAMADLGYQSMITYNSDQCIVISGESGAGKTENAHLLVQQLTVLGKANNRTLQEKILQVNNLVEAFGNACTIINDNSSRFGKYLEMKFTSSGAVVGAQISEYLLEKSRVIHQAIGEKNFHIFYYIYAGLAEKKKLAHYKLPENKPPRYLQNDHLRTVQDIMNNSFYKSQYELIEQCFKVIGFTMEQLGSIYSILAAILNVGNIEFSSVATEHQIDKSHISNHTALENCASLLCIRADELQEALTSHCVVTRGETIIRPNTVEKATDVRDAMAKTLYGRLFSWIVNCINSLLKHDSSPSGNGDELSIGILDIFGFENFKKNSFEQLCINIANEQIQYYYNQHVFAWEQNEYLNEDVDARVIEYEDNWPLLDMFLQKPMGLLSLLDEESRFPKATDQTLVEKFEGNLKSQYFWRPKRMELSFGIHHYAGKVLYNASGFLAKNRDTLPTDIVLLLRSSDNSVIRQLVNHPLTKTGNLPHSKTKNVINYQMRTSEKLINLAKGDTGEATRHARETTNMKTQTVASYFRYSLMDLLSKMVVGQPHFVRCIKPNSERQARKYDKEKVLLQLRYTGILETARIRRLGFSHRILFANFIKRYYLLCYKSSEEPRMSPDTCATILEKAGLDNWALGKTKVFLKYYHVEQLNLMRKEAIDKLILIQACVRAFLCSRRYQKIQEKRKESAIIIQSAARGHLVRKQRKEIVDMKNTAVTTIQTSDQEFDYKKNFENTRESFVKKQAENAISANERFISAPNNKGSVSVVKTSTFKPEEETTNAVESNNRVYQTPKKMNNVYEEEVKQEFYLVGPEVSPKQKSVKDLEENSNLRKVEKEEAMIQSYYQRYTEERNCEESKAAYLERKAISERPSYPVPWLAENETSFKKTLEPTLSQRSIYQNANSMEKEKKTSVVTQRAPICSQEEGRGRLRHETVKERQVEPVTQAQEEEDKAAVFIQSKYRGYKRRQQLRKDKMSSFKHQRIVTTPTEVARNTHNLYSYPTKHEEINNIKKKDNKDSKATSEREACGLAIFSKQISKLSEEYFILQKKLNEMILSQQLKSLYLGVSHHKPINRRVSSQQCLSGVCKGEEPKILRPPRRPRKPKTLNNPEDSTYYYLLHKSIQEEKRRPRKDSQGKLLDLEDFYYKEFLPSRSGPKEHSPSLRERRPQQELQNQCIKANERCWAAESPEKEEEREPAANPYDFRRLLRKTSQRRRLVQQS

Structure (SMILES) | remaining activity at 0.1 µM [1] [%] | remaining activity at 0.1 µM [2] [%] | remaining activity at 0.1 µM [3] [%] | remaining activity at 0.1 µM [4] [%] | remaining activity at 0.1 µM [5] [%] | remaining activity at 0.1 µM [6] [%] | remaining activity at 0.1 µM [7] [%] | remaining activity at 0.1 µM [8] [%] | remaining activity at 0.1 µM [9] [%] | remaining activity at 0.1 µM [10] [%] | remaining activity at 0.1 µM [11] [%] | remaining activity at 0.1 µM [12] [%] | remaining activity at 0.1 µM [13] [%] | remaining activity at 0.1 µM [14] [%] | remaining activity at 0.1 µM [15] [%] | remaining activity at 0.1 µM [16] [%] | remaining activity at 0.1 µM [17] [%] | remaining activity at 0.1 µM [18] [%] | remaining activity at 0.1 µM [19] [%] | remaining activity at 0.1 µM [20] [%] | also measured
CN1CCN(Cc2ccc(-c3cnc4[nH]cc(-c5ccc6[nH]ccc6c5)c4c3)cc2)CC1 [Compound 1, 3-(1H-Indol-5-yl)-5-(4-((4-methylpiperazin-1-yl)methyl)phenyl)-1H-pyrrolo[2,3-b]pyridine, reference compound] | 92.3 | 112 | 100 | 92.1 | 84.8 | 87.7 | 106 | 91.4 | 99.8 | 97 | 102 | 100 | 90.3 | 86.3 | 91.6 | 76.7 | 116 | 88.6 | 97.6 | 102 | remaining activity at 0.1 µM [21]: 117%; remaining activity at 0.1 µM [22]: 103%; remaining activity at 0.1 µM [23]: 99.8%; remaining activity at 0.1 µM [24]: 102%
OCCN1CCN(Cc2ccc(-c3cnc4[nH]cc(-c5cccc(Cl)c5)c4c3)cc2)CC1 [Compound 12k, 2-(4-(4-(3-(3-Chlorophenyl)-1H-pyrrolo[2,3-b]pyridin-5-yl)benzyl)piperazin-1-yl)ethan-1-ol] | 102 | 103 | 89.8 | 96.3 | 91.6 | 77.8 | 88 | 98.5 | 98.6 | 101 | 106 | 93 | 99.3 | 88.5 | 97.5 | 80.9 | 97.9 | 79.1 | 65.2 | 96.5 | remaining activity at 0.1 µM [21]: 103%; remaining activity at 0.1 µM [22]: 102%; remaining activity at 0.1 µM [23]: 105%; remaining activity at 0.1 µM [24]: 102%

— patent US12227500B2, “Substituted pyrrolo[2,3-b]pyridines for suppressing toxic endoplasmic reticulum stress” (THE TRUSTEES OF COLUMBIA UNIVERSITY IN THE CITY OF NEW YORK, priority 2018, dated 2025)
